For data set [1] the following is noted: for logp [a]: pH 2.7; for logp [b]: pH 7.8.
Data set [2] deals with Phytophthora infestans. The format is in vivo. The settings on record: tomato plants, protective spray, active ingredient concentration 100 ppm, evaluation 7 days after inoculation; 0% = control, 100% = no infection.
Data set [3] relates to Plasmopara viticola. Kind of data set: Plasmopara test (grapevine)/protective. The format is in vivo. The following applies: grapevine young plants, protective spray, active ingredient concentration 10 ppm, evaluation 6 days after inoculation; 0% = control, 100% = no infection. The procedure:
Plasmopara Test (Grapevine)/Protective
To produce an appropriate active ingredient formulation, 1 part by weight of active ingredient is mixed with the specified amounts of solvent and emulsifier, and the concentrate is diluted with water to the desired concentration.
To test for protective efficacy, young plants are sprayed with the active ingredient formulation at the stated application rate. After the spray coating has dried on, the plants are inoculated with an aqueous spore suspension of Plasmopara viticola and then remain in an incubation cabin at approx. 20° C. and 100% relative air humidity for 1 day. Subsequently, the plants are placed in a greenhouse at approx. 21° C. and approx. 90% air humidity for 4 days. The plants are then moistened and placed in an incubation cabin for 1 day.
Evaluation follows 6 days after the inoculation. 0% means an efficacy which corresponds to that of the control, whereas an efficacy of 100% means that no infection is observed.
In this test, the following inventive compounds show, at an active ingredient concentration of 10 ppm, an efficacy of 70% or more: […]

We go through 14 molecules from patent publication US9930890B2 (priority 2010, dated 2018).

In the case of `CCON=Cc1ccccc1C1CC(c2csc(C3CCN(C(=O)Cn4nc(C(F)(F)F)cc4C)CC3)n2)=NO1` (mixture of isomers) [I-29], in data set [1], the “logp [a]” value is 4[a]. The results for the Eff. % in data set [2] and in data set [3] were 100% and 90%, respectively.
The corresponding values for `CON=Cc1ccccc1C1CC(c2csc(C3CCN(C(=O)Cn4nc(C(F)(F)F)cc4C)CC3)n2)=NO1` (mixture of isomers) [I-34] are 3.7[a], 100% and 87%.
Regarding `CON=Cc1cccc(F)c1C1CC(c2csc(C3CCN(C(=O)Cn4nc(C(F)(F)F)cc4C)CC3)n2)=NO1` (mixture of isomers) [I-118], in data set [1], the “logp [a]” value is 3.61[a], and the “logp [b]” value is 3.49[b]. In data set [2], this molecule showed an Eff. % of 95%. The molecule also came in with an Eff. % in data set [3] of 100%.
Turning to `C#CCOCc1ccccc1C1CC(c2csc(C3CCN(C(=O)Cn4nc(C(F)(F)F)cc4C)CC3)n2)=NO1` (racemic) [I-46], in data set [1], the “logp [a]” value is 3.43[a]. Also, the Eff. % in data set [2] and in data set [3] was 94% throughout.
As for `CC(=O)OCc1ccccc1C1CC(c2csc(C3CCN(C(=O)Cn4nc(C(F)(F)F)cc4C)CC3)n2)=NO1` (racemic) [I-47], in data set [1], the “logp [a]” value is 3.31[a]. For the same molecule, the Eff. % in data set [2] was found to be 94%; in data set [3] it was 90%.
The matching figures for `C#CCOCc1ccccc1C1CC(c2csc(C3CCN(C(=O)Cn4nc(C(F)F)cc4C(F)F)CC3)n2)=NO1` (racemic) [I-53]: 3.31[a], 94% and 96%.
Turning to `Cc1ccc(Cl)cc1NC(=O)N1CCC(c2nc(C3=NOC(c4c(Cl)cccc4OS(C)(=O)=O)C3)cs2)CC1` (racemic) [I-54], in data set [1], the “logp [a]” value was 3.54[a], and the “logp [b]” value is 3.43[b]. Moreover, the Eff. % in data set [2] was 94%. The Eff. % in data set [3] turned out to be 100%.
As to `CC(=O)OCc1ccccc1C1CC(c2csc(C3CCN(C(=O)Cn4nc(C(F)F)cc4C(F)F)CC3)n2)=NO1` (racemic) [I-55], the “logp [a]” value in data set [1] is 3.22[a]. The results for the Eff. % in data set [2] and in data set [3] were 94% and 92%, respectively.
For the molecule `COCCS(=O)(=O)Cc1ccccc1C1CC(c2csc(C3CCN(C(=O)Cn4nc(C(F)F)cc4C(F)F)CC3)n2)=NO1` (racemic) [I-57], the “logp [a]” value in data set [1] was 2.74[a]. Also, the Eff. % came to 94% in data set [2] and 90% in data set [3].
With `CC(=NO)c1ccccc1C1CC(c2csc(C3CCN(C(=O)Cn4nc(C(F)(F)F)cc4C)CC3)n2)=NO1` (stereo not drawn) [I-40, 1-[4-(4-{5-[2-(N-Hydroxyethanimidoyl)phenyl]-4,5-dihydro-1,2-phenyloxazol-3-yl}-1,3-thiazol-2-yl)piperidin-1-yl]-2-[5-methyl-3-(trifluoromethyl)-1H-pyrazol-1-yl]ethanone], the “logp [a]” value in data set [1] is 2.92[a]. In addition, the results for the Eff. % in data set [2] and in data set [3] were 100% and 90%, respectively.
For `N#CCOc1ccccc1C1CC(c2csc(C3CCN(C(=O)Cn4nc(C(F)F)cc4C(F)F)CC3)n2)=NO1` (stereo not drawn) [I-63], in data set [1], the “logp [a]” value is 3[a], and the “logp [b]” value was 2.91[b]. The molecule also gave an Eff. % in data set [2] of 94%. Further, in data set [3], the Eff. % is 100%.
Consider `O=C(Cn1nc(C(F)F)cc1C(F)F)N1CCC(c2nc(C3=NOC(c4ccccc4OS(=O)(=O)C4CC4)C3)cs2)CC1` (stereo not drawn) [I-64], for which the “logp [a]” value in data set [1] is 3.24[a],. Besides, in data set [1], the “logp [b]” value is 3.32[b]. The Eff. % in data set [2] and in data set [3] was 100% throughout.
Regarding `Cc1ccc(C)c(NC(=O)N2CCC(c3nc(C4=NOC(c5ccccc5OS(C)(=O)=O)C4)cs3)CC2)c1` (stereo not drawn) [I-74], in data set [1], the “logp [a]” value was 3.08[a], and the “logp [b]” value is 3.03[b]. The same molecule had an Eff. % in data set [2] of 100%. For the same molecule, the Eff. % in data set [3] turned out to be 100%.
Take `Cc1cc(C(F)F)nn1CC(=O)N1CCC(c2nc(C3=NOC(c4ccccc4OCC#N)C3)cs2)CC1` (stereo not drawn) [I-76]: the “logp [a]” value in data set [1] is 2.7[a],. The “logp [b]” value in data set [1] was 2.62[b]. Further, the Eff. % worked out at 100% in data set [2] and 93% in data set [3].
